Results on five molecules are retold here after patent publication US5679645A, “Sialic acid powder and process for the preparation thereof” (Snow Brand Milk Products Co., Ltd., priority 1993, dated 1997).

A short description of data set [1]: Time for complete dissolution in methanol suspension with Dowex 50. The data set is classed as physicochemical. The procedure: A suspension of 10 g of Dowex 50 (trademark, manufactured by Dow Chemical; H+-type, 100-200 mesh, washed with hot methanol) in 100 ml of methanol was prepared. 10 g of Amorphous Powder 1--1, Needles 1--1, or Prisms 1--1 prepared in Example 1 was each charged to the suspension at 25° C. while vigorously stirring. While continuing the stirring at 25° C., the mixture was sampled from time to time to measure the time required for the sialic acids to be dissolved completely to form a clear solution, the degree of reaction, and the final reaction yield. The reaction yield was calculated by HPLC (HPX-87H column, trademark, manufactured by Bio Rad Co.).

Data set [2] can be described thus: Water content of sialic acid powders (Table 1, comparison of properties). The data set is classed as physicochemical. To be noted: for Water content: Table 1.
The nature of data set [3]: Relationship between freezing rate and properties of the freeze-dried powder (degree of crystallization, water content; Table 2). It counts as physicochemical. To be noted: 40% by weight aqueous solution. The procedure: Relationship between the freezing rate of a sialic acid aqueous solution and properties of the ultimate product was studied. 40% by weight aqueous solution of sialic acids was used and frozen for different periods of time using liquid nitrogen, a cooling shelf, and a freezer, and freeze-dried for 4 days. The degree of crystallization and the water content were measured.

Data set [4] is described as follows: Solubility in water and organic solvents (statement).
Setting [5] is: 10 g in 100 ml methanol with 10 g Dowex 50 (H+), 25° C., stirring.
Setting [6] is: time for freezing 1 minute or shorter.
[7] abbreviates: time for freezing 5 minute or shorter.
Where [8] appears, read: time for freezing 10 minute or shorter.
The mark [9] stands for this setting: time for freezing 30 minute or shorter.
The mark [10] stands for this setting: time for freezing 1 hour or shorter.
Where [11] appears, read: time for freezing 3 hours or shorter.

In the case of `CC(=O)N[C@H]1[C@H]([C@H](O)[C@H](O)CO)OC(O)(C(=O)O)C[C@@H]1O` (some centres unmarked) [Needles 1-1, sialic acid], the “Time required for complete dissolution” value in data set [1] (setting [5]) turned out to be 27 min. In data set [2], this molecule registered a Water content of 2.1%.

For the molecule `CC(=O)N[C@H]1[C@H]([C@H](O)[C@H](O)CO)OC(O)(C(=O)O)C[C@@H]1O` (some centres unmarked) [Prisms 1-1, sialic acid], in data set [1] (methanol with Dowex 50, 25° C., 5 hours), the “Complete dissolution after 5 hours (in words)” value is reported as “did not completely dissolved”. The molecule also yielded a Water content in data set [2] of 10.9%. For the same molecule, the “Crystal water contained in the powder” value in data set [2] (stated in discussion of Table 3) is reported as “about 10%”.

For `CC(=O)N[C@H]1[C@H]([C@H](O)[C@H](O)CO)OC(O)(C(=O)O)C[C@@H]1O` (some centres unmarked) [Amorphous Powder 1-1, sialic acid], in data set [1] (setting [5]), the “Time required for complete dissolution” value stood at 6 min and the “Time required for complete dissolution (in words)” value was “dissolved fastest”. The molecule also displayed a Water content in data set [2] of 2.2%.

For `CC(=O)N[C@H]1[C@H]([C@H](O)[C@H](O)CO)OC(O)(C(=O)O)C[C@@H]1O` (some centres unmarked) [freeze-dried powder, sialic acid], the Crystallization degree in data set [3] (setting [6]) is recorded as 0%; in data set [3] (setting [7]), above 0.1%; in data set [3] (setting [8]) it was 0.2-0.4%; in data set [3] (setting [9]), 1.8-2.3%; in data set [3] (setting [10]), 9.8-15.1%; in data set [3] (setting [11]), 26-35%. Further, the Water content in data set [3] (setting [6]) is listed as 1.1-1.7%; in data set [3] (setting [7]) it was 1.2-1.9%; in data set [3] (setting [8]), 1.4-2.1%; in data set [3] (setting [9]), 2.4-3.6%; in data set [3] (setting [10]), 3.9-4.8%; in data set [3] (setting [11]), 5.1-6.2%.

Regarding `CC(=O)N[C@H]1[C@H]([C@H](O)[C@H](O)CO)OC(O)(C(=O)O)C[C@@H]1O` (some centres unmarked) [sialic acid], the “Solubility in organic solvents and reactivity (in words)” value in data set [4] (compared with needles) was “superiority to such sialic acid needles, in terms of solubility in organic solvents and the reactivity”. Besides, the “Solubility in water (in words)” value in data set [4] (compared with needles and prisms) was “more excellent in its solubility in water than both the needles and the prisms”. In data set [2] (compared with needles), the “Water content (in words)” value is on record as “very close to those of needles”.
